# Results as given in patent US10858335B2 (Rigel Pharmaceuticals, Inc., priority 2014, dated 2020).
# Tested on: GDF8 signaling (p-SMAD-3 (Ser423/425))
# Test: AlphaScreen SureFire SMAD3 (p-Ser423/425) assay, GDF8-stimulated cells (GDF pSMAD)
# Format: cell-based
# Conditions: MPC11; GDF8-stimulated; p-SMAD3 AlphaScreen; read-out: GDF pSMAD (MPC11) (inhibition of GDF8 signaling)
row,SMILES,IC50 [nM]
1,"Cc1cc(-c2ncccc2-c2ccc3ncc(C(=O)NC4CC5CCC(C4)N5C)n3c2)ccc1F (stereo not drawn) [compound 713, endo-6-(2-(4-Fluoro-3-methylphenyl)pyridin-3-yl)-N-(8-methyl-8-azabicyclo[3.2.1]octan-3-yl)imidazo[1,2-a]pyridine-3-carboxamide]",10200

# Same assay, conditions: Mus musculus, MPC-11, MPC11; GDF8-stimulated; p-SMAD3 AlphaScreen; read-out: GDF pSMAD (MPC11) (inhibition of GDF8 signaling)
row,IC50 [nM],SMILES
1,312,"Cc1cc(-c2ncc(NCc3cccc(O)c3)cc2-c2ccc3ncsc3c2)ccc1F [compound 332, 3-(((5-(Benzo[d]thiazol-6-yl)-6-(4-fluoro-3-methylphenyl)pyridin-3-yl)amino)methyl)phenol]"
2,638,"Fc1cc(F)c(-c2ncccc2-c2ccc3nccnc3n2)cc1Cl [compound 743, 6-(2-(5-Chloro-2,4-difluorophenyl)pyridin-3-yl)pyrido[2,3-b]pyrazine]"
3,6870,"N#Cc1cnc2ccc(-c3cccnc3-c3ccccc3F)cn12 [compound 623, 6-(2-(2-Fluorophenyl)pyridin-3-yl)imidazo[1,2-a]pyridine-3-carbonitrile]"
4,2640,"Cc1cc(-c2ncc(-c3cccc(O)c3)cc2-c2ccc3ncsc3c2)ccc1F [compound 343, 3-(5-(Benzo[d]thiazol-6-yl)-6-(4-fluoro-3-methylphenyl)pyridin-3-yl)phenol]"
5,3030,"Cc1cc(-c2ncccc2-c2ccn3c(-c4ccncc4)ncc3c2)ccc1F [compound 287, 7-(2-(4-Fluoro-3-methylphenyl)pyridin-3-yl)-3-(pyridin-4-yl)imidazo[1,5-a]pyridine]"
6,3780,"Cc1cc(-c2ncccc2-c2ccc3ncc(C(=O)NC4CCNCC4)n3c2)ccc1F [compound 652, 6-(2-(4-Fluoro-3-methylphenyl)pyridin-3-yl)-N-(piperidin-4-yl)imidazo[1,2-a]pyridine-3-carboxamide]"
7,2300,"Clc1cccc(-c2ncccc2-c2ccc3ncccc3c2)c1 [compound 699, 6-(2-(3-Chlorophenyl)pyridin-3-yl)quinolone]"
8,2760,"Nc1ncnc2ccc(-c3cccnc3-c3ccc(F)c(C(F)(F)F)c3)cc12 [compound 476, 6-(2-(4-Fluoro-3-(trifluoromethyl)phenyl)pyridin-3-yl)quinazolin-4-amine]"
9,332,"Fc1ccc(-c2ncccc2-c2ccc3nc[nH]c3c2)cc1Cl [compound 782, 6-(2-(3-Chloro-4-fluorophenyl)pyridin-3-yl)-1H-benzo[d]imidazole]"
10,2890,"Cc1ccc(F)c(-c2ncccc2-c2cnc3cn[nH]c3c2)c1 [Compound 140, 6-(2-(2-Fluoro-5-methylphenyl)pyridin-3-yl)-1H-pyrazolo[4,3-b]pyridine]"
11,548,"COc1cc(-c2ncccc2-c2ccc3[nH]ncc3c2)ccc1F [Compound 124, 5-(2-(4-Fluoro-3-methoxyphenyl)pyridin-3-yl)-1H-indazole]"
12,19200,"Cc1cc(-c2ncccc2-c2ccc3c(cnn3C(=O)NCCCN)c2)ccc1F [compound 640, N-(3-Aminopropyl)-5-(2-(4-fluoro-3-methylphenyl)pyridin-3-yl)-1H-indazole-1-carboxamide]"
13,63.9,"CN1CCC(NC(=O)c2cnc3ccc(-c4cccnc4-c4cc(Cl)ccc4F)cn23)CC1 [compound 722, 6-(2-(5-Chloro-2-fluorophenyl)pyridin-3-yl)-N-(1-methylpiperidin-4-yl)imidazo[1,2-a]pyridine-3-carboxamide]"
14,520,"CC(=O)c1cnc2ccc(-c3cccnc3-c3cccc(Cl)c3)cn12 [compound 763, 1-(6-(2-(3-Chlorophenyl)pyridin-3-yl)imidazo[1,2-a]pyridin-3-yl)ethan-1-one]"
15,11800,"Cc1cc(-c2ncccc2-c2ccc3ncnc(NCc4ccncc4)c3c2)ccc1F [compound 415, 6-(2-(4-Fluoro-3-methylphenyl)pyridin-3-yl)-N-(pyridin-4-ylmethyl)quinazolin-4-amine]"
16,1220,"CN1CCC(NC(=O)c2cnc3ccc(-c4cccnc4-c4cc(F)c(F)cc4F)cn23)CC1 [compound 710, N-(1-Methylpiperidin-4-yl)-6-(2-(2,4,5-Trifluorophenyl)pyridin-3-yl)imidazo[1,2-a]pyridine-3-carboxamide]"
17,17800,"Cc1cccc(-c2ncccc2-c2ccc3ncn(CCCN4CCN(C)CC4)c3c2)c1 [compound 251, 1-(3-(4-Methylpiperazin-1-yl)propyl)-6-(2-m-tolylpyridin-3-yl)-1H-benzo[d]imidazole]"
18,355,"Nc1ncnc2ccc(-c3cccnc3-c3cc(Cl)ccc3Cl)cc12 [compound 501, 6-(2-(2,5-Dichlorophenyl)pyridin-3-yl)quinazolin-4-amine]"
19,204,"c1cc(-c2ncccc2-c2ccn3cncc3c2)cc(C2CC2)c1 [compound 596, 7-(2-(3-Cyclopropylphenyl)pyridin-3-yl)imidazo[1,5-a]pyridine]"
20,4680,"CN(C)c1cnc2ccc(-c3cccnc3-c3cccc(C(F)(F)F)c3)cn12 [compound 554, N,N-Dimethyl-6-(2-(3-(trifluoromethyl)phenyl)pyridin-3-yl)imidazo[1,2-a]pyridin-3-amine]"
21,6310,"Cc1cc(-c2ncccc2-c2ccc3ncc(C(=O)N4CCN(C)CC4)n3c2)ccc1F [compound 581, (6-(2-(4-Fluoro-3-methylphenyl)pyridin-3-yl)imidazo[1,2-a]pyridin-3-yl)(4-methylpiperazin-1-yl)methanone]"
22,57,"Cc1cccc(-c2ncccc2-c2cc(C)c3[nH]ncc3c2)c1 [Compound 176, 7-Methyl-5-(2-m-tolylpyridin-3-yl)-1H-indazole]"
23,822,"N#Cc1cnc2ccc(-c3cccnc3-c3cc(Cl)c(F)cc3F)cn12 [compound 720, 6-(2-(5-Chloro-2,4-difluorophenyl)pyridin-3-yl)imidazo[1,2-a]pyridine-3-carbonitrile]"
24,10300,"Fc1ccc(-c2ncccc2-c2ccc3cn[nH]c3c2)cc1F [Compound 98, 6-(2-(3,4-Difluorophenyl)pyridin-3-yl)-1H-indazole]"
25,1180,"Cc1cc(-c2ncccc2-c2ccc3ncc(C(=O)NCC4CCN(C)CC4)n3c2)ccc1F [compound 651, 6-(2-(4-Fluoro-3-methylphenyl)pyridin-3-yl)-N-((1-methylpiperidin-4-yl)methyl)imidazo[1,2-a]pyridine-3-carboxamide]"
26,14800,"Cc1cc(-c2ncccc2-c2ccn3c(C(=O)NCCCN4CCCC4=O)ncc3c2)ccc1F [compound 274, 7-(2-(4-Fluoro-3-methylphenyl)pyridin-3-yl)-N-(3-(2-oxopyrrolidin-1-yl)propyl)imidazo[1,5-a]pyridine-3-carboxamide]"
27,10000,"Fc1cc(F)c(-c2ncccc2-c2ccc3nccnc3n2)cc1F [compound 741, 6-(2-(2,4,5-Trifluorophenyl)pyridin-3-yl)pyrido[2,3-b]pyrazine]"
28,1380,"Cc1cc(-c2ncccc2-c2ccc3cncn3c2)ccc1F [compound 269, 6-(2-(4-Fluoro-3-methylphenyl)pyridin-3-yl)imidazo[1,5-a]pyridine]"
29,232,"Nc1ncnc2ccc(-c3cccnc3-c3ccc(F)c(Cl)c3)nc12 [compound 964, 6-(2-(3-Chloro-4-fluorophenyl)pyridin-3-yl)pyrido[3,2-d]pyrimidin-4-amine]"
30,96.2,"CNC(=O)c1cnc2ccc(-c3cccnc3-c3ccc(F)c(C)c3)cn12 [compound 584, 6-(2-(4-Fluoro-3-methylphenyl)pyridin-3-yl)-N-methylimidazo[1,2-a]pyridine-3-carboxamide]"
